Reference: US5283331A, “2-halogeno-oxetanocin A and phosphoric ester thereof” (Nippon Kayaku Kabushiki Kaisha, priority 1990, dated 1994)
Values after ≈ are worked out from the molar mass of the structure shown.

Assays:
[1] = tested on: HIV; experiment: Anti-HIV activity in MT-4 cells (viral antigen expression, fluorescent antibody method); assay type: cell-based
Experimental: Anti-HIV activity (anti-Human Immunodeficiency Virus activity) was measured in the following manner. Thus, about 100,000 cells/ml of MT-4 cells were placed in a 24-well tray, and 100 μl of a solution containing a predetermined quantity of a compound of this invention was added thereto. After culturing it at 37° C. for 2 hours in a 5% (v/v) carbon dioxide incubator, 2.5×10^5 infection units of HIV was added and cultured for 4 days. Then, a portion of the culture fluid was applied onto a slide glass and immobilized with acetone, after which expression of the viral antigen was tested according to the fluorescent antibody method. As the primary antibody of the fluorescent antibody method, a serum of AIDS patient was used. As the secondary antibody, FITC-labelled anti-human IgG was used.
The test were conducted in a comparative manner, using oxetanocin A as a control substance for each of Experiment 1 and 2.

[2] = tested on: adenosine deaminase; experiment: Stability to adenosine deaminase (residual percentage by HPLC); assay type: in vitro ADME, young calf; settings: 0 min; pH 6.8, 37° C., 5 units adenosine deaminase
Experimental: (§1) Sample (0.05 ml) was dissolved into 20 ml of 0.1M phosphate buffer (pH 6.8), and 5 units of adenosine deaminase originated from young calf intestinal mucous membrane (SIGMA Product No. A-1155) was added. While keeping the resulting mixture at a constant temperature of 37° C., its 1 ml portion was sampled out at predetermined intervals. After adding 1 μmole of coformycin and 10-hold diluting the mixture with water, residual percentage of the sample was determined by reverse phase high performance liquid chromatography (column: Senshu Pak ODS-5121-N, 6.phi.×150 mm; eluent: 0.1M citrate buffer-acetonitrile-methanol (50:2:1); flow rate: 1.8 ml/min.; detection: UV detector, 254 nm).

[3] = as above; assay type: in vitro ADME, young calf; settings: bovine, pH 6.8, 37° C., 5 units adenosine deaminase; for remaining at 0.5 h: 30 min; for remaining at 1 h: 60 min; for remaining at 2 h: 120 min
Experimental: as §1

[4] = tested on: virus; settings: prior art: Journal of Antibiotics 39, 1623-25 (1986), EP-A2-0182315; cited from earlier work
[5] = tested on: cytomegalovirus (A0169 strain); experiment: Anti-cytomegalovirus activity (plaque reduction in human embryo fibroblast); assay type: cell-based; settings: for EC50: Human betaherpesvirus 5, 240 h, plaque number, human embryo fibroblast, 10 days, 37° C., read-out: Anti-cytomegalovirus activity ED50 (50% inhibitory value)
Experimental: Anti-cytomegalovirus activity was measured in the following manner. Thus, a 35 mm dish having a single layer of human embryo fibroblast was infected with 100 PFU (Plaque Forming Units) of cytomegalovirus (A0169 strain). After adsorption for one hour, it was covered with a layer of a medium [0.5% agarose and 2% fetal calf serum] containing a varied concentration of a compound of this invention. After culturing it for 10 days at 37° C. in a 5% (v/v) carbon dioxide incubator, the number of plaques formed was measured.

Row | Structure (SMILES) | Residual percentage (%) [2] | remaining at 10 min [3] | remaining at 0.5 h [3] | remaining at 1 h [3] | remaining at 2 h [3] | activity against HIV (in words) [1] | antiviral activity (in words) [4] | activity against cytomegalovirus (in words) [5] | EC50 [5]
1 | Nc1nc(Cl)nc2c1ncn2[C@@H]1O[C@H](COP(=O)(O)O)[C@H]1CO [Compound No. 6, 2-Chloro-oxetanocin A 4'-phosphate] | 100% | 100% | 100% | 100% | 100% | excellent activities against HIV | – | – | –
2 | Nc1ncnc2c1ncn2[C@@H]1O[C@H](CO)[C@H]1CO [Oxetanocin] | – | – | – | – | – | – | having an antiviral activity | – | –
3 | Nc1nc(F)nc2c1ncn2[C@@H]1O[C@H](COP(=O)(O)O)[C@H]1CO [Compound No. 5, 2-Fluoro-oxetanocin A 4'-phosphate] | 100% | 100% | 100% | 100% | 100% | – | – | – | –
4 | Nc1ncnc2c1ncn2[C@@H]1O[C@H](CO)[C@H]1CO [Oxetanocin A] | 100% | 85% | 28% | 0% | 0% | – | – | – | 13 µg/mL (≈ 51.7 µM)

Further lines, with some results ahead:

Row | Residual percentage (%) [2] | remaining at 10 min [3] | remaining at 0.5 h [3] | remaining at 1 h [3] | remaining at 2 h [3] | Structure (SMILES) | activity against HIV (in words) [1] | antiviral activity (in words) [4] | activity against cytomegalovirus (in words) [5] | EC50 [5]
5 | 100% | 100% | 100% | 100% | 100% | Nc1nc(Cl)nc2c1ncn2[C@@H]1O[C@H](CO)[C@H]1CO [Compound No. 2, 2-Chloro-oxetanocin A] | excellent activities against HIV | – | – | –
6 | 100% | 100% | 100% | 100% | 100% | Nc1nc(F)nc2c1ncn2[C@@H]1O[C@H](CO)[C@H]1CO [Compound No. 1, 2-Fluoro-oxetanocin A] | excellent activities against HIV | – | excellent activity against cytomegalovirus | 0.3 µg/mL (≈ 1.11 µM)
